Data as given in PMC9003190, “MeNINV1: An Alkaline/Neutral Invertase Gene of Manihot esculenta, Enhanced Sucrose Catabolism and Promoted Plant Vegetative Growth in Transgenic Arabidopsis” (Plants, 2022).

T1: MeNINV1 (Manihot esculenta, UniProt G5DC09)
T1 construct: gene NINV1; full-length ORF in pDR195, expressed in invertase-deficient yeast SEY2102; crude enzyme supernatant, empty-vector control
T1 sequence (G5DC09 1-685): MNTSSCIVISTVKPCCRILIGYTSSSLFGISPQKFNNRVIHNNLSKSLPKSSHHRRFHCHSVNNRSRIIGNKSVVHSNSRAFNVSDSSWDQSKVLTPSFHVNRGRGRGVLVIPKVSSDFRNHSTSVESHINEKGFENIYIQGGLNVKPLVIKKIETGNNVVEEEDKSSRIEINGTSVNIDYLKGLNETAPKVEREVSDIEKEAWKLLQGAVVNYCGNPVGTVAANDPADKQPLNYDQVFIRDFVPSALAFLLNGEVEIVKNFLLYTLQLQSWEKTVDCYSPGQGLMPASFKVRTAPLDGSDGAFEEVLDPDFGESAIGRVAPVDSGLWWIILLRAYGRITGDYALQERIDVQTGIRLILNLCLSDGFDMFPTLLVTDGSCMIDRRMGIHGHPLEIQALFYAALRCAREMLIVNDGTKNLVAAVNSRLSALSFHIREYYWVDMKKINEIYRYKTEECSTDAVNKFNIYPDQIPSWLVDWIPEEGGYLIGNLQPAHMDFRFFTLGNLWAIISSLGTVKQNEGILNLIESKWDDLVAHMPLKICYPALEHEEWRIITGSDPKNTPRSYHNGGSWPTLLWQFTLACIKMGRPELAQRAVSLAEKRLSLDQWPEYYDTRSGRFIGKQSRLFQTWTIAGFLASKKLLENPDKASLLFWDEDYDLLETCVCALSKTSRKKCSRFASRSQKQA

B1: MeNINV1 (Manihot esculenta) (protein)
chain: T1 sequence (G5DC09 1-685)
notes: full-length ORF in pDR195, expressed in invertase-deficient yeast SEY2102; crude enzyme supernatant, empty-vector control

Experiments:
MeNINV1 = target: T1, MeNINV1; experiment: DNS reducing sugar assay, crude yeast extract; format: biochemical; details: product inhibition of sucrose hydrolysis; pH 6.5
[1] = substrate: OC[C@H]1O[C@@](CO)(O[C@H]2O[C@H](CO)[C@@H](O)[C@H](O)[C@H]2O)[C@@H](O)[C@@H]1O; experiment: DNS reducing sugar assay, crude yeast extract; format: biochemical, Manihot esculenta; details: pH 6.5, optimum temperature 40 °C

Molecule	DNS reducing sugar assay, crude yeast extract (MeNINV1)	Km [1] [mM]
OCC1(O)OC[C@@H](O)[C@@H](O)[C@@H]1O (some centres unmarked) [fructose]	The addition of fructose, a decomposition product of sucrose, to the reaction solution inhibited	–
B1	–	10.59
